Data: PMC8857485, “Prostate secretory protein 94 inhibits sterol binding and export by the mammalian CAP protein CRISP2 in a calcium-sensitive manner” (The Journal of Biological Chemistry, 2022)
Positions count from the first letter of the chain named. Structures can show the parent of a compound that is named as a salt. Where two headings read alike, the source gives them in different places.

Tests used:
[1] = target: T1, CRISP2 (Homo sapiens, UniProt P16562); assay: MST binding to CRISP2; parameters: species or system mammalian
T1 construct: made in house; host or cells: E. coli BL21
T1 sequence (P16562 22-243): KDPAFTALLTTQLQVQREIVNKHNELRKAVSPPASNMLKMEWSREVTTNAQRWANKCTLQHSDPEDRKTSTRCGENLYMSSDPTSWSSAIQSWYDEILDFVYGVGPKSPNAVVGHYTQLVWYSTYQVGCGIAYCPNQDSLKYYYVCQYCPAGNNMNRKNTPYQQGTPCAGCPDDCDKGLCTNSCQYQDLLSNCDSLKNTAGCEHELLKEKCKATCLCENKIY
Excerpt: (§1) To confirm the direct interaction of PSP94 with CRISP3 and to test whether PSP94 would also bind other CAP family members such as yeast Pry1, or CRISP2, we performed in vitro protein binding assay using microscale thermophoresis (MST). Therefore, PSP94 and the CAP family members, Pry1, CRISP2, and CRISP3, were expressed as fusion proteins with a C-terminal polyhistidine tag in Escherichia coli, and the proteins were affinity purified on nickel-NTA agarose beads. The purified CAP proteins were then fluorescently labeled using RED-tris-NTA and incubated with varying concentrations of PSP94. […] PSP94 thus has high binding affinity for all three CAP proteins tested, and it also binds the CAP domain of Pry1 (Pry1^CAP) alone.
DNA encoding proteins of interest were PCR amplified and cloned into NcoI and XhoI restriction sites of pET22b, which contains a PelB signal sequence to direct the secretion of expressed protein into the periplasmic space. Plasmids were transformed into E. coli BL21, and proteins were expressed with a C-terminal polyhistidine tag. Different induction strategies were used: overnight induction with lactose at 24 °C for Pry1, CRISP2, and PSP94 and 6 h of induction with 0.4 mM IPTG at 24 °C for the CAP domain of Pry1. Cells were collected and lysed, and the soluble cell lysate was incubated with nickel-nitrilotriacetic acid beads as per the manufacturer instructions (Qiagen). Beads were washed and loaded onto a Ni^2+-NTA column, and proteins were eluted with a buffer containing 60 mM NaH2PO4, 300 mM NaCl, and 300 mM imidazole, pH 8.0. […] Protein concentration was determined by Lowry assay using the Folin reagent and bovine serum albumin as protein standard.
(§2) MST experiments were performed to assess protein–protein, protein–lipid, and protein–calcium interactions using a Monolith NT.115 (Nanotemper Technologies). […] The dissociation constant Kd was obtained by plotting the normalized fluorescence (Fnorm) against the logarithm of ligand concentration. […]

[2] = target: T2, CAP domain of Pry1 (Pry1^CAP) (Saccharomyces cerevisiae, UniProt P47032); assay: MST binding to the CAP domain of Pry1
T2 construct: made in house; host or cells: E. coli BL21
Excerpt: as §1
DNA encoding proteins of interest were PCR amplified and cloned into NcoI and XhoI restriction sites of pET22b, which contains a PelB signal sequence to direct the secretion of expressed protein into the periplasmic space. […] Protein concentration was determined by Lowry assay using the Folin reagent and bovine serum albumin as protein standard.
as §2

[3] = target: T3, CRISP2^L98G Y99P (Homo sapiens, UniProt P16562, L98G/Y99P); assay: MST binding to CRISP2 double mutant L98G Y99P; parameters: species or system mammalian
T3 construct: made in house; host or cells: E. coli
T3 sequence (P16562 22-243 L98G/Y99P): T1 sequence (P16562 22-243) with L77G, Y78P
Procedure: Next, we generated all three double mutant combinations of CRISP2: N97P L98G, N97P Y99P, and L98G Y99P. These three double mutant versions of CRISP2 were again expressed as His-tagged proteins in E. coli and purified, and their capacity to bind sterols in the presence or absence of PSP94 was assessed by MST. […] The capacity of the CRISP2^L98G Y99P double mutant to bind sterols even in the presence of PSP94 was confirmed by the in vivo sterol export assay (Fig. 6, A and B). When expressed in yeast cells, the CRISP2^L98G Y99P double mutant was stably expressed and secreted as monitored by Western blotting (Fig. 6C).
MST experiments were performed to assess protein–protein, protein–lipid, and protein–calcium interactions using a Monolith NT.115 (Nanotemper Technologies). Proteins were labeled using the RED-tris-NTA His tag protein labeling kit. Labeled CAP proteins, 100 nM, were mixed with a serial dilution of unlabeled PSP94, PSP9^F24G, cholesterol sulfate, or calcium chloride, prepared in binding buffer (20 mM Tris pH 7.5, 30 mM NaCl, 0.05% Triton X-100). Samples were loaded into MST standard capillaries, and MST measurements were performed using an 80% laser power setting. The dissociation constant Kd was obtained by plotting the normalized fluorescence (Fnorm) against the logarithm of ligand concentration. Experiments were performed in triplicates, and data were fitted using the Kd model of the MO.Affinity Analysis software (Nanotemper Technologies). For binding inhibition studies, CAP proteins and PSP94 were preincubated for 5 min at 24 °C before performing binding studies with cholesterol sulfate.

T2 sequence (P47032 167-281 limits assumed): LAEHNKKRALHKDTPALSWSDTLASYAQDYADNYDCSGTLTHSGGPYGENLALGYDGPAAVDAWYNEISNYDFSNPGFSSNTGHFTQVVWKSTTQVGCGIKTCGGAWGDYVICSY

CC(C)CCC[C@@H](C)[C@H]1CC[C@H]2[C@@H]3CC=C4C[C@@H](OS(=O)(=O)O)CC[C@]4(C)[C@H]3CC[C@]12C [cholesterol sulfate]
Kd ([1]; PSP94^F24G preincubated 5 min at 24 °C, read-out: Kd, sterol binding by CRISP2 in presence of PSP94^F24G): 9.7 ± 3.04 µM
Kd ([1]; absence of PSP94, read-out: Kd, sterol binding by CRISP2): 1.6 ± 0.9 µM
Kd ([2]; PSP94^F24G preincubated 5 min at 24 °C, read-out: Kd, sterol binding by Pry1^CAP in presence of PSP94^F24G): 4.14 ± 0.92 µM
Kd ([2]; absence of PSP94, read-out: Kd, sterol binding by Pry1^CAP): 0.9 ± 1.9 µM
Kd ([3]; +PSP94, read-out: Kd, sterol binding by CRISP2^L98G Y99P in presence of PSP94): 0.5 µM
Kd ([3]; PSP94^F24G preincubated 5 min at 24 °C, read-out: Kd, sterol binding by CRISP2^L98G Y99P in presence of PSP94^F24G): 4.5 ± 2.08 µM
Kd ([3]; absence of PSP94, read-out: Kd, sterol binding by CRISP2^L98G Y99P): 2.2 ± 1.7 µM
